Reference: patent publication US9078871B2, “Estrogen receptor modulators and uses thereof” (SERAGON PHARMACEUTICALS, INC., priority 2010, dated 2015)
pIC50: −log10 of the molar value.

Experiments:
Assay type in all cases: cell-based
MCF-7 cells = assay: Breast Cancer Cell Viability Assay (MCF7 Viability Assay); settings: 5 days' compound exposure, CellTiter-Glo; for pIC50: Homo sapiens, MCF7, 120 h
Summary of the method: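 MCF-7 cells, 320 per well in RPMI with 10% FBS and 20 mM HEPES, adhered overnight, then exposed 5 days to an eleven-point semilog dilution (final 0.3–0.000003 μM). CellTiter-Glo luminescence; % viability relative to untreated cells after subtracting cell-free background.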

ER-α [1] = biological target: T1, ER-α (Homo sapiens, UniProt P03372); assay: ER-α in Cell Western Assay (SP1); settings: MCF-7 cells, SP1 rabbit monoclonal Ab, 4 or 24 hr post compound addition, read-out: ER In-Cell Western Assay (SP1); for Emax: MCF7, Max Response; for DC50: IC50
T1 construct: endogenous in cells; host or cells: MCF-7
T1 sequence (P03372 1-595): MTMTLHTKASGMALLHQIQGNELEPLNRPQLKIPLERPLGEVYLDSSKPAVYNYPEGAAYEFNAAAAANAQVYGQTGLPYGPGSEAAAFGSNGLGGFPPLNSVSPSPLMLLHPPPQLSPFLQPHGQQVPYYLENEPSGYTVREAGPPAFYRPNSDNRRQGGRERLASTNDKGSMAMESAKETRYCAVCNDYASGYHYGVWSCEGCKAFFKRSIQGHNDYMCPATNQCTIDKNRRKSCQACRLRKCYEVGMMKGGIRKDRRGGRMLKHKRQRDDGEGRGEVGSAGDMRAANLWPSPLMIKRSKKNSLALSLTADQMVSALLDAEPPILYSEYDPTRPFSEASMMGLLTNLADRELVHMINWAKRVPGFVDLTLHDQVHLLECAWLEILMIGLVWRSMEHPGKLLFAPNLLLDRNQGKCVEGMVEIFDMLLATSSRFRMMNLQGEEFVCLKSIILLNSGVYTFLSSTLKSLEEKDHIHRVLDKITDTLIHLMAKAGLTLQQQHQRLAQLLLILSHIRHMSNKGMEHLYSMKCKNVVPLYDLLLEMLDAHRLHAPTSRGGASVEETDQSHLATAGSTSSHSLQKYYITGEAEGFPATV
Summary of the method: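 MCF-7 cells in charcoal-stripped FBS medium treated with 11-point semilog dilutions (0.3–0.000003 μM final) for 4 or 24 hr, then fixed and immunostained with SP1 anti-ER antibody. ER signal (800 nm) normalized to DRAQ5 DNA signal (700 nm) and expressed as % of untreated cells.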

ER-α [2] = biological target: T1, ER-α; assay: ER-α In Cell Western Assay (ER1D5); settings: MCF-7 cells, ER1D5 antibody, 4 or 24 hr post compound addition, read-out: ER In-Cell Western Assay (ER1D5); for Emax: MCF7, Max Response; for DC50: IC50
Description: MCF-7 cells were adjusted to a concentration of 200,000 cells per mL in RPMI containing 10% charcoal-stripped FBS and 20 mM HEPES. 16 microliters of the cell suspension (3200 cells) was added to each well of a poly-D-lysine 384 well plate, and the cells were incubated overnight to allow the cells to adhere. The following day an eleven point, serial semilog dilution of each compound was added to the cells in 16 μL at a final concentration ranging from 0.3-0.000003 μM. At 4 or 24 hr post compound addition, the cells were fixed (10% formalin in PBS) for 20 minutes. Cells were permeabalized in PBS 0.1% Triton and blocked with LICOR blocking buffer (50 μl/well, 90′). The wells were then incubated overnight at 4° C. with ER1D5 (Santa Cruz Biotechnology) diluted 1:100 in LICOR blocking buffer/0.1% Tween-20. Wells which were treated with blocking buffer with Tween but no antibody were used as a background control. Wells were washed with 0.1% Tween-20/PBS and then incubated in goat anti-mouse IRDye™ 800CW (LICOR Inc.; 1:1000) and DRAQ5 DNA dye (1:2000 for 2 mM stock) diluted in LICOR blocking buffer containing 0.1% Tween-20 and 0.01% SDS for 60 minutes. Cells were washed (50 μl/well, 5′ each) in 0.1% Tween-20/PBS. Plates were scanned on a LICOR Odyssey infrared imaging system. Integrated intensities in the 800 nm channel and 700 nm channel were measured to determine levels of ER and DNA respectively. Percent ER levels were determined as follows: (Integrated intensity 800 nm sample/integrated intensity 700 nm sample)/(Integrated intensity 800 nm untreated cells/integrated intensity 700 nm untreated cells)×100=% ER levels.

Row | SMILES | MCF7 Viability Assay Max Response (MCF-7 cells) | pIC50 (MCF-7 cells) | Emax (ER-α [1]) | DC50 (ER-α [1]) | Emax (ER-α [2]) | DC50 (ER-α [2])
1 | CC1=C(c2cccc(O)c2)C(c2ccc(OCCn3cccc3)cc2)Oc2ccc(O)cc21 (stereo not drawn) [Example 14, 3-(3-Hydroxyphenyl)-4-methyl-2-(4-(2-pyrrolylethoxy)phenyl)-2H-chromen-6-ol] | + (+ = a single % value <50%) | ≥ 9.00 | 60 to 85% | ≤ 1 nM | 40 to 65% | ≤ 1 nM
2 | CC1=C(c2ccccc2C)C(c2ccc(OC[C@H](C)N3CC[C@@H](C)C3)cc2)Oc2ccc(O)cc21 (stereo partly drawn) [Example 56, 4-Methyl-2-(4-((S)-2-((R)-3-methylpyrrolidin-1-yl)propoxy)phenyl)-3-(o-tolyl)-2H-chromen-6-ol] | ++ (++ = a single % value ≧50%) | ≥ 9.00 | 60 to 85% | ≤ 1 nM | ≥ 65% | ≤ 1 nM
3 | CC1=C(c2cccc(O)c2)C(c2ccc(OC[C@H](C)N3CC[C@@H](C)C3)cc2F)Oc2ccc(O)cc21 (stereo partly drawn) [Example 35, 2-(2-Fluoro-4-((S)-2-((R)-3-methylpyrrolidin-1-yl)propoxy)phenyl)-3-(3-hydroxyphenyl)-4-methyl-2H-chromen-6-ol] | ++ (++ = a single % value ≧50%) | ≥ 9.00 | ≥ 85% | ≤ 1 nM | ≥ 65% | ≤ 1 nM
4 | CC1=C(c2ccccc2)C(c2ccc(OC[C@H](C)N3CC[C@@H](C)C3)cc2)Oc2ccc(O)cc21 (stereo partly drawn) [Example 29, 4-Methyl-2-(4-((S)-2-((R)-3-methylpyrrolidin-1-yl)propoxy)phenyl)-3-phenyl-2H-chromen-6-ol] | ++ (++ = a single % value ≧50%) | ≥ 9.00 | 60 to 85% | ≤ 1 nM | ≥ 65% | ≤ 1 nM
5 | CC1=C(c2cccc(O)c2)C(c2ccc(OC[C@H](C)N3CCC(C)(C)C3)cc2)Oc2ccc(O)cc21 (stereo partly drawn) [Example 18, 2-(4-((S)-2-(3,3-Dimethylpyrrolidin-1-yl)propoxy)phenyl)-3-(3-hydroxyphenyl)-4-methyl-2H-chromen-6-ol] | ++ (++ = a single % value ≧50%) | ≥ 9.00 | 60 to 85% | ≤ 1 nM | ≥ 65% | ≤ 1 nM
6 | CC1=C(c2ccc(F)cc2)C(c2ccc(OC[C@H](C)N3CC[C@@H](C)C3)cc2)Oc2ccc(O)cc21 (mixture of isomers) [Example 30, 3-(4-Fluorophenyl)-4-methyl-2-(4-((S)-2-((R)-3-methylpyrrolidin-1-yl)propoxy)phenyl)-2H-chromen-6-ol] | ++ (++ = a single % value ≧50%) | ≥ 9.00 | 60 to 85% | ≤ 1 nM | ≥ 65% | ≤ 1 nM
7 | CC1=C(c2cccc(O)c2)C(c2ccc(OCCN3CCCCCC3)cc2)Oc2ccc(O)cc21 (stereo not drawn) [Example 17, 2-(4-(2-(Azepan-1-yl)ethoxy)phenyl)-3-(3-hydroxyphenyl)-4-methyl-2H-chromen-6-ol] | + (+ = a single % value <50%) | ≥ 9.00 | 60 to 85% | ≤ 1 nM | 40 to 65% | ≤ 1 nM
8 | CC1=C(c2cccc(O)c2)C(c2ccc(OCCN3CCCCC3)cc2)Oc2ccc(O)cc21 (stereo not drawn) [Example 9, 3-(3-Hydroxyphenyl)-4-methyl-2-(4-(2-piperidylethoxy)phenyl)-2H-chromen-6-ol] | ++ (++ = a single % value ≧50%) | ≥ 9.00 | 60 to 85% | ≤ 1 nM | 40 to 65% | ≤ 1 nM
9 | CC1=C(c2ccc(O)cc2)C(c2ccc(OC[C@H](C)N3CC[C@@H](C)C3)cc2)Oc2cc(O)ccc21 (stereo partly drawn) [Example 28, 3-(4-Hydroxyphenyl)-4-methyl-2-(4-((S)-2-((R)-3-methylpyrrolidin-1-yl)propoxy)phenyl)-2H-chromen-7-ol] | ++ (++ = a single % value ≧50%) | ≥ 9.00 | ≥ 85% | ≤ 1 nM | ≥ 65% | ≤ 1 nM
10 | CC1=C(c2cccc(O)c2)C(c2ccc(OC[C@H](C)N3CC[C@@H](C)C3)cc2)Oc2cc(O)ccc21 (stereo partly drawn) [Example 27, 3-(3-Hydroxyphenyl)-4-methyl-2-(4-((S)-2-((R)-3-methylpyrrolidin-1-yl)propoxy)phenyl)-2H-chromen-7-ol] | ++ (++ = a single % value ≧50%) | ≥ 9.00 | ≥ 85% | ≤ 1 nM | ≥ 65% | ≤ 1 nM
11 | CC1=C(c2ccc(O)c(F)c2)C(c2ccc(OC[C@H](C)N3CC[C@@H](C)C3)cc2)Oc2ccc(O)cc21 (stereo partly drawn) [Example 33, 3-(3-Fluoro-4-hydroxyphenyl)-4-methyl-2-(4-((S)-2-((R)-3-methylpyrrolidin-1-yl)propoxy)phenyl)-2H-chromen-6-ol] | ++ (++ = a single % value ≧50%) | ≥ 9.00 | ≥ 85% | ≤ 1 nM | ≥ 65% | ≤ 1 nM
12 | C#Cc1ccc(C2=C(C)c3cc(O)ccc3OC2c2ccc(OC[C@H](C)N3CC[C@@H](C)C3)cc2)cc1 (stereo partly drawn) [Example 58, 3-(4-Ethynylphenyl)-4-methyl-2-(4-((S)-2-((R)-3-methylpyrrolidin-1-yl)propoxy)phenyl)-2H-chromen-6-ol] | ++ (++ = a single % value ≧50%) | < 9.00 | 60 to 85% | ≤ 1 nM | ≥ 65% | > 1 nM
13 | CC1=C(c2cccc(O)c2)C(c2ccc(OC[C@H](C)N3CCC[C@@H]3C)cc2)Oc2ccc(O)cc21 (stereo partly drawn) [Example 24, 3-(3-Hydroxyphenyl)-4-methyl-2-(4-((S)-2-((S)-2-methylpyrrolidin-1-yl)propoxy)phenyl)-2H-chromen-6-ol] | + (+ = a single % value <50%) | ≥ 9.00 | < 60% | ≤ 1 nM | 40 to 65% | ≤ 1 nM
14 | CC1=C(c2cccc(O)c2)C(c2ccc(OCCN3CCC(C)(C)C3)cc2)Oc2ccc(O)cc21 (stereo not drawn) [Example 19, 2-(4-(2-(3,3-Dimethylpyrrolidin-1-yl)ethoxy)phenyl)-3-(3-hydroxyphenyl)-4-methyl-2H-chromen-6-ol] | ++ (++ = a single % value ≧50%) | ≥ 9.00 | 60 to 85% | ≤ 1 nM | ≥ 65% | ≤ 1 nM
15 | CC1=C(c2ccc(O)cc2)C(c2ccc(OC[C@H](C)N3CC[C@@H](C)C3)cc2)Oc2ccc(O)cc21 (stereo partly drawn) [Example 31, 3-(4-Hydroxyphenyl)-4-methyl-2-(4-((S)-2-((R)-3-methylpyrrolidin-1-yl)propoxy)phenyl)-2H-chromen-6-ol] | ++ (++ = a single % value ≧50%) | ≥ 9.00 | ≥ 85% | ≤ 1 nM | ≥ 65% | ≤ 1 nM
